Activity calls are given as the source filed them. No cut-off for these calls is given here.
Assays:
NCI-H2228 [1] = assay: Induction of apoptosis in human NCI-H2228 cells assessed as necrotic cells at 25 nM incubated for 48 hrs by AnnexinV-FITC/propidium iodide staining based flow cytometry analysis (reference value: 0.55 %); type: functional
[2] = Antiproliferative activity against human HELF cells assessed as inhibition of cell growth incubated for 72 hrs by MTT assay; type: toxicity, cell-based
[3] = biological target: ALK tyrosine kinase receptor (Homo sapiens, UniProt Q9UM73, L1196M); assay: Inhibition of N-terminal GST-tagged human ceritinib-resistant ALK L1196M mutant (1058 to 1620 residues) cytoplasmic domain expressed in baculovirus infected Sf21 cells incubated for 1 hrs in the presence of ATP by mobility shift assay
MDA-MB-231 = assay: cells; settings: Homo sapiens, MDA-MB-231, 72 h
NCI-H2228 [4] = assay: Induction of apoptosis in human NCI-H2228 cells assessed as viable cells at 25 nM incubated for 48 hrs by AnnexinV-FITC/propidium iodide staining based flow cytometry analysis (reference value: 92.3 %); type: functional; settings: read-out: Activity
NCI-H2228 [5] = assay: Induction of apoptosis in human NCI-H2228 cells assessed as solidified nuclei at 25 to 100 nM incubated for 48 hrs by Hoechst 33342 staining based fluorescence microscopic analysis; type: functional, cell-based; settings: dose 25-100 nM
NCI-H2228 [6] = assay: Induction of apoptosis in human NCI-H2228 cells assessed as early apoptotic cells at 25 nM incubated for 48 hrs by AnnexinV-FITC/propidium iodide staining based flow cytometry analysis (reference value: 2.45 %); type: functional
[7] = biological target: T1, ALK tyrosine kinase receptor (Homo sapiens, UniProt Q9UM73); assay: Inhibition of ALK phosphorylation in human NCI-H2228 cells measured after 24 hrs by Western blot analysis; type: cell-based; settings: dose 25-100 nM, DDE = dose-dependent effect
[8] = biological target: T1, ALK tyrosine kinase receptor; assay: Inhibition of ALK downstream signalling in human NCI-H2228 cells assessed as reduction in ERK level measured after 24 hrs by Western blot analysis; type: cell-based; settings: dose 25-100 nM, DDE = dose-dependent effect
[9] = Antiproliferative activity […] EML4-ALK cells assessed as inhibition of cell growth incubated for 72 hrs by MTT assay; type: functional, cell-based
NCI-H2228 [10] = assay: Induction of apoptosis in human NCI-H2228 cells assessed as necrotic cells at 50 nM incubated for 48 hrs by AnnexinV-FITC/propidium iodide staining based flow cytometry analysis (reference value: 0.55 %); type: functional
NCI-H2228 [11] = assay: Induction of cell cycle arrest in human NCI-H2228 cells assessed as decrease in S phase cells at 100 nM incubated for 48 hrs by PI/RNase staining based flow cytometry analysis (reference value: 34.90 %); type: functional; design: scale not given: the % may be the effect or the level left
NCI-H2228 [12] = assay: Induction of apoptosis in human NCI-H2228 cells assessed as nuclei fragmentation by measuring brilliant blue fluorescence at 25 to 100 nM incubated for 48 hrs by Hoechst 33342 staining based fluorescence microscopic analysis; type: functional, cell-based; settings: dose 25-100 nM
NCI-H2228 [13] = assay: Induction of apoptosis in human NCI-H2228 cells assessed as early apoptotic cells at 100 nM incubated for 48 hrs by AnnexinV-FITC/propidium iodide staining based flow cytometry analysis (reference value: 2.45 %); type: functional
NCI-H2228 [14] = assay: Induction of apoptosis in human NCI-H2228 cells assessed as necrotic cells at 100 nM incubated for 48 hrs by AnnexinV-FITC/propidium iodide staining based flow cytometry analysis (reference value: 0.55 %); type: functional
NCI-H2228 [15] = assay: Inhibition of colony formation in human NCI-H2228 cells assessed as reduction in colony area incubated for 3 day by crystal violet staining based assay; type: functional, cell-based; settings: dose 25-100 nM, DDE = dose-dependent effect
[16] = Potency index, ratio of test compound IC50 to ceritinib IC50 antiproliferative activity […] EML4-ALK-G1202R cells assessed as inhibition of cell growth incubated for 72 hrs by MTT assay; type: functional
[17] = biological target: Epidermal growth factor receptor (Homo sapiens, UniProt P00533); assay: Inhibition of human EGFR (669 to 1210 residues) cytoplasmic domain expressed in baculovirus infected Sf21 cells incubated for 1 hrs in the presence of ATP by mobility shift assay
NCI-H2228 [18] = assay: Inhibition of colony formation in human NCI-H2228 cells assessed as reduction in colony area at 100 nM incubated for 3 day by crystal violet staining based assay; type: functional; settings: NCI-H2228, 72 h
NCI-H2228 [19] = assay: Induction of apoptosis in human NCI-H2228 cells assessed as late apoptotic cells at 50 nM incubated for 48 hrs by AnnexinV-FITC/propidium iodide staining based flow cytometry analysis (reference value: 4.72 %); type: functional
NCI-H2228 [20] = assay: Inhibition of cell migration in human NCI-H2228 cells measured at 24 to 48 hrs by inverted microscopic based cell scratch assay; type: functional; settings: dose 2.5-10 nM, time 24-48 hrs, DDE = dose-dependent effect
[21] = AUC (0 to t) in Sprague-Dawley rat at 10 mg/kg, po by LC-MS/MS analysis; type: ADME, organism-based; design: dose 10 mg/kg, route po; settings: in vivo
HT-29 = assay: cells; settings: Homo sapiens, HT-29, 72 h
Description: Antiproliferative activity against human HT-29 cells assessed as inhibition of cell growth incubated for 72 hrs by MTT assay

[22] = AUC (0 to infinity) in Sprague-Dawley rat at 2 mg/kg, iv by LC-MS/MS analysis; type: ADME, organism-based; design: time infinity, dose 2 mg/kg, route iv; settings: in vivo
NCI-H2228 [23] = assay: Antitumor activity against human NCI-H2228 cells xenografted in BALB/c nude mouse assessed as tumor regression at 25 mg/kg, IG administered every 2 days for 4 times; type: functional, organism-based; settings: time 8.0 day
NCI-H2228 [24] = assay: Induction of apoptosis in human NCI-H2228 cells assessed as late apoptotic cells at 100 nM incubated for 48 hrs by AnnexinV-FITC/propidium iodide staining based flow cytometry analysis (reference value: 4.72 %); type: functional
NCI-H2228 [25] = assay: Induction of cell cycle arrest in human NCI-H2228 cells assessed as increase in G1 phase cells at 50 nM incubated for 48 hrs by PI/RNase staining based flow cytometry analysis (reference value: 49.72 %); type: functional
NCI-H3122 = assay: Antiproliferative activity against EML4-ALK positive human NC-H3122 cells assessed as inhibition of cell growth incubated for 72 hrs by MTT assay; type: functional, cell-based; settings: NCI-H3122, 72 h
[26] = biological target: T1, ALK tyrosine kinase receptor; assay: Inhibition of ALK downstream signalling in human NCI-H2228 cells assessed as reduction in phosphorylated AKT level measured after 24 hrs by Western blot analysis; type: cell-based; settings: dose 25-100 nM, DDE = dose-dependent effect
[27] = MRT in Sprague-Dawley rat at 10 mg/kg, po by LC-MS/MS analysis; type: ADME, organism-based; settings: in vivo
[28] = biological target: T1, ALK tyrosine kinase receptor; assay: Inhibition of ALK downstream signalling in human NCI-H2228 cells assessed as reduction in AKT level measured after 24 hrs by Western blot analysis; type: cell-based; settings: dose 25-100 nM, DDE = dose-dependent effect
NCI-H2228 [29] = assay: Induction of apoptosis in human NCI-H2228 cells assessed as ruptured nuclei at 25 to 100 nM incubated for 48 hrs by Hoechst 33342 staining based fluorescence microscopic analysis; type: functional, cell-based; settings: dose 25-100 nM
NCI-H2228 [30] = assay: Induction of cell cycle arrest in human NCI-H2228 cells assessed as decrease in S phase cells at 50 nM incubated for 48 hrs by PI/RNase staining based flow cytometry analysis (reference value: 34.90 %); type: functional; design: scale not given: the % may be the effect or the level left
NCI-H2228 [31] = assay: Induction of apoptosis in human NCI-H2228 cells assessed as total apoptotic cells at 25 nM incubated for 48 hrs by AnnexinV-FITC/propidium iodide staining based flow cytometry analysis; type: functional

T1 sequence (Q9UM73 19-1620 limits assumed): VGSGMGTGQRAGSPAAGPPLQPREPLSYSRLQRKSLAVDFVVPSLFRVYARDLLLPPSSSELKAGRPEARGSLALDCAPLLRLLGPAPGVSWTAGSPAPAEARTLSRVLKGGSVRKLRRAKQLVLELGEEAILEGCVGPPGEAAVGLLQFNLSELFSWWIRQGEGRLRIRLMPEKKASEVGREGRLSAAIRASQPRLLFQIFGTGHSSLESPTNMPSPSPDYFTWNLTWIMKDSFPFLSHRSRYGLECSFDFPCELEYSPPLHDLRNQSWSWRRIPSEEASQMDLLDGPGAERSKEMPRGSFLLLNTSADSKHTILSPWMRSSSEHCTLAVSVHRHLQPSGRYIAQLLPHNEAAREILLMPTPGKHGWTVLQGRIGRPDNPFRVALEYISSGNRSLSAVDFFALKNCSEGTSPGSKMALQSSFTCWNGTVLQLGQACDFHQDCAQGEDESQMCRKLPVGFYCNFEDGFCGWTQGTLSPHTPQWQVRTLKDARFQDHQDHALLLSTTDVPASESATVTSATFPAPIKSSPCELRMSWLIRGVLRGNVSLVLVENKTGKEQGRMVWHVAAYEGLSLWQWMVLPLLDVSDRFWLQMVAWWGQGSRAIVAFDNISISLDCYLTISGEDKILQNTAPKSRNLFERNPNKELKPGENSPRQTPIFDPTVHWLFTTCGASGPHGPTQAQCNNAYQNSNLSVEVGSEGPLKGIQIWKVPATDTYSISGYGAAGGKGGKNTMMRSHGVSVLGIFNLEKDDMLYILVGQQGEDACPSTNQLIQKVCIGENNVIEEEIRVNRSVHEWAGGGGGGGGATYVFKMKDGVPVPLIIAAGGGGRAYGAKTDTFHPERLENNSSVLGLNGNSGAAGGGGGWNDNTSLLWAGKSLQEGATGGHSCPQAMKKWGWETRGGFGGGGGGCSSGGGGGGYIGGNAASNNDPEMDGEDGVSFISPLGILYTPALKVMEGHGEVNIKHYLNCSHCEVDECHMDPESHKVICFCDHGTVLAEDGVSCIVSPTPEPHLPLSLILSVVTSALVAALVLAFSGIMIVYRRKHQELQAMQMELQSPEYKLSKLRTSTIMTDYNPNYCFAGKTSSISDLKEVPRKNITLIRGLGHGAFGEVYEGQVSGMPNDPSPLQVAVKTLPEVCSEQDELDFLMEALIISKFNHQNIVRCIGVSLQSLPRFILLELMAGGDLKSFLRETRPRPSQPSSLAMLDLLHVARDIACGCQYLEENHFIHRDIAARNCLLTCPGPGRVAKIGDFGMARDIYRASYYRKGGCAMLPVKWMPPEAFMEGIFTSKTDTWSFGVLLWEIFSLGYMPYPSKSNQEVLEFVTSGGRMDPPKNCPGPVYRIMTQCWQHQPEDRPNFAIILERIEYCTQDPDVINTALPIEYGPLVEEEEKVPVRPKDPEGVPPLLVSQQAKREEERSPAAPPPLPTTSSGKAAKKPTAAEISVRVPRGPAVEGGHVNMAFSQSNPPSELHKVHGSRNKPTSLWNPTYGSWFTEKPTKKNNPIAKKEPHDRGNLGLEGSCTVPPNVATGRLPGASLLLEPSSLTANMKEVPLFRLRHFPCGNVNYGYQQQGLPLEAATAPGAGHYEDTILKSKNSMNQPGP
Chain of Epidermal growth factor receptor (P00533 whole entry, the tested form may be a part): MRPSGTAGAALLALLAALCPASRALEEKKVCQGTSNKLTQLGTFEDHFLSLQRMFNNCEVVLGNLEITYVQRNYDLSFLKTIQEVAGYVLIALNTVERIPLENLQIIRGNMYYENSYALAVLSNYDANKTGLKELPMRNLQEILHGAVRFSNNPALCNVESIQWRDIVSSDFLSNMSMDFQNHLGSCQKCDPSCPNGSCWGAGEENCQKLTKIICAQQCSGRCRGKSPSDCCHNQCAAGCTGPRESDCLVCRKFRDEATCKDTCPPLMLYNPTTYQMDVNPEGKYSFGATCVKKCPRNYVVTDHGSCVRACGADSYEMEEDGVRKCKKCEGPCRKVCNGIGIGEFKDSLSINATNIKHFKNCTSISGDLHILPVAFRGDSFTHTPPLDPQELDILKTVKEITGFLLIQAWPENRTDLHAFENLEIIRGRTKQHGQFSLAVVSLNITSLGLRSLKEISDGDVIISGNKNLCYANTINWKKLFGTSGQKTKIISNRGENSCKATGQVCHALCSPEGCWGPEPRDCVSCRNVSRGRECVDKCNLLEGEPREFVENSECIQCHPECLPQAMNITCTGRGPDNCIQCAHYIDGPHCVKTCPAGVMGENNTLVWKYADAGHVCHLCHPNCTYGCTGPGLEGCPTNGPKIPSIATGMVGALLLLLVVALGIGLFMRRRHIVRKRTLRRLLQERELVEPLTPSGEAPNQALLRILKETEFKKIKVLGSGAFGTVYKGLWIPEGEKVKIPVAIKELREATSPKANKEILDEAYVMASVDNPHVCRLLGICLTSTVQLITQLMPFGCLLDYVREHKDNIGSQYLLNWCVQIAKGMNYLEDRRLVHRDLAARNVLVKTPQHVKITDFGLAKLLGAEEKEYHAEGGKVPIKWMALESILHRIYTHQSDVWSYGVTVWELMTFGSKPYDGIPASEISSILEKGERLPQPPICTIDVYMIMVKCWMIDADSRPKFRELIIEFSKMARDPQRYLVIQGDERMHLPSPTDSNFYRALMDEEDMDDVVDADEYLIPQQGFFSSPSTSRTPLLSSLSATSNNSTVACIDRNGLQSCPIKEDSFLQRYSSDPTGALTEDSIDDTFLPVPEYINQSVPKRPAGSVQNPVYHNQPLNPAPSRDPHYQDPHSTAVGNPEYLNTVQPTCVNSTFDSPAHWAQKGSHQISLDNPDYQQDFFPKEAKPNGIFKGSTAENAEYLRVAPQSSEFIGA
Chain of ALK tyrosine kinase receptor (Homo sapiens, UniProt Q9UM73, L1196M) (Q9UM73 19-1620 L1196M limits assumed): as the sequence (Q9UM73 19-1620 limits assumed) above, with L1178M counted along it

CNC(=O)c1ccccc1Nc1nc(Nc2ccc3c(C(=O)N(C)C)c(C)[nH]c3c2)ncc1Cl
Activity (NCI-H2228 [1]): 1.68% | IC50 at 72 h [2]: > 10000 nM | IC50 [3]: 3.7 nM | IC50 (MDA-MB-231): 1880 nM | viability at 0.025 µM (NCI-H2228 [4]): 84.1% | Activity (NCI-H2228 [5]): Active | Activity (NCI-H2228 [6]): 3.73% | inhibition [7]: Dde | inhibition [8]: Dde | IC50 [9]: 21 nM | Activity (NCI-H2228 [10]): 1.66% | Activity (NCI-H2228 [11]): 29.32% | Activity (NCI-H2228 [12]): Active | Activity (NCI-H2228 [13]): 8.7% | Activity (NCI-H2228 [14]): 1.71% | inhibition (NCI-H2228 [15]): Dde | Ratio IC50 [16]: 61 | IC50 [17]: > 1000 nM | inhibition at 0.1 µM (NCI-H2228 [18]): 100% | Activity (NCI-H2228 [19]): 16.5% | inhibition (NCI-H2228 [20]): Dde | AUC(0-t) [21]: 1720 ng·h/mL | IC50 (HT-29): 2010 nM | AUC(0-inf) [22]: 922 ng·h/mL | Activity (NCI-H2228 [23]): Active | Activity (NCI-H2228 [24]): 23% | Activity (NCI-H2228 [25]): 54.44% | IC50 (NCI-H3122): 27 nM | inhibition [26]: Dde | MRT [27]: 6.6 h | inhibition [28]: Dde | Activity (NCI-H2228 [29]): Active | Activity (NCI-H2228 [30]): 32.28% | Activity (NCI-H2228 [31]): 14.23%

Reference: ChEMBL document CHEMBL5126595, “Identification and anti-tumor evaluation of 3-acyl-indol-based 2,4-diarylaminopyrimidine analogues as potent ALK inhibitors capable of overcoming drug-resistant mutants” (Eur J Med Chem, 2022)
